# According to ChEMBL document CHEMBL4507318, “Data for DCP probe BAY-985” (2021):
# Tests used:
# [1] = target: Tyrosine-protein kinase Lck (Homo sapiens) (UniProt P06239)
# [2] = target: Tyrosine-protein kinase receptor UFO (Homo sapiens) (UniProt P30530)
# [3] = target: Vascular endothelial growth factor receptor 3 (Homo sapiens) (UniProt P35916)
# [4] = target: Serine/threonine-protein kinase MRCK beta (Homo sapiens) (UniProt Q9Y5S2)
# [5] = target: Myosin-IIIb (Homo sapiens) (UniProt Q8WXR4)
# [6] = target: Serine/threonine-protein kinase 3 (Homo sapiens) (UniProt Q13188)
# [7] = target: Eukaryotic translation initiation factor 2-alpha kinase 1 (Homo sapiens) (UniProt Q9BQI3)
# [8] = target: Cyclin-dependent kinase 8 (Homo sapiens) (UniProt P49336)
# [9] = target: Tyrosine-protein kinase Tec (Homo sapiens) (UniProt P42680)
# [10] = target: Casein kinase I isoform gamma-3 (Homo sapiens) (UniProt Q9Y6M4)
# [11] = target: Serine/threonine-protein kinase PLK1 (Homo sapiens) (UniProt P53350)
# [12] = target: Cyclin-dependent kinase 14 (Homo sapiens) (UniProt O94921)
# [13] = target: Tyrosine-protein kinase JAK3 (Homo sapiens) (UniProt P52333)
# [14] = test system: Tyrosine-protein kinase ABL1 (Homo sapiens), P00519 [Q252H]
# [15] = target: Cyclin-dependent kinase 2 homolog (Plasmodium falciparum (isolate 3D7)) (UniProt P61075)
# [16] = target: Serine/threonine-protein kinase PLK2 (Homo sapiens) (UniProt Q9NYY3)
# [17] = target: Serine/threonine-protein kinase ULK3 (Homo sapiens) (UniProt Q6PHR2)
# [18] = target: 3-phosphoinositide-dependent protein kinase 1 (Homo sapiens) (UniProt O15530)
# [19] = target: Glycogen synthase kinase-3 alpha (Homo sapiens) (UniProt P49840)
# [20] = target: TGF-beta receptor type-1 (Homo sapiens) (UniProt P36897)
# [21] = target: Dual specificity protein kinase CLK1 (Homo sapiens) (UniProt P49759)
# [22] = target: Mitogen-activated protein kinase kinase kinase 13 (Homo sapiens) (UniProt O43283)
# [23] = target: Phosphatidylinositol 3-kinase catalytic subunit type 3 (Homo sapiens) (UniProt Q8NEB9)
# [24] = target: SRSF protein kinase 1 (Homo sapiens) (UniProt Q96SB4)
# [25] = target: Mitogen-activated protein kinase 14 (Homo sapiens) (UniProt Q16539)
# [26] = target: LIM domain kinase 2 (Homo sapiens) (UniProt P53671)
# [27] = target: MAP kinase-activated protein kinase 5 (Homo sapiens) (UniProt Q8IW41)
# [28] = target: Tyrosine-protein kinase HCK (Homo sapiens) (UniProt P08631)
# [29] = target: Death-associated protein kinase 2 (Homo sapiens) (UniProt Q9UIK4)
# [30] = target: Serine/threonine-protein kinase 4 (Homo sapiens) (UniProt Q13043)
# [31] = target: 5-hydroxytryptamine receptor 1D (Homo sapiens) (UniProt P28221); details: Compound concentration 10.0 uM
# [32] = target: Vascular endothelial growth factor receptor 1 (Homo sapiens) (UniProt P17948)
# [33] = target: MAP/microtubule affinity-regulating kinase 3 (Homo sapiens) (UniProt P27448)
# [34] = target: Sigma intracellular receptor 2 (Homo sapiens, UniProt Q5BJF2); details: Compound concentration 10.0 uM
# [35] = target: Alpha-2A adrenergic receptor (Homo sapiens) (UniProt P08913); details: Compound concentration 10.0 uM
# [36] = target: LIM domain kinase 1 (Homo sapiens) (UniProt P53667)
# [37] = target: TGF-beta receptor type-2 (Homo sapiens) (UniProt P37173)
# [38] = target: Mast/stem cell growth factor receptor Kit (Homo sapiens) (UniProt P10721)
# [39] = target: Muscarinic acetylcholine receptor M5 (Homo sapiens) (UniProt P08912); details: Compound concentration 10.0 uM
# [40] = target: Homeodomain-interacting protein kinase 2 (Homo sapiens) (UniProt Q9H2X6)
# [41] = target: Aurora kinase B (Homo sapiens) (UniProt Q96GD4)
# [42] = target: Muscarinic acetylcholine receptor M4 (Homo sapiens) (UniProt P08173); details: Compound concentration 10.0 uM
# [43] = target: Epidermal growth factor receptor (Homo sapiens) (UniProt P00533)
# [44] = target: cAMP-dependent protein kinase catalytic subunit alpha (Homo sapiens) (UniProt P17612)
# [45] = test system: Receptor-type tyrosine-protein kinase FLT3 (Homo sapiens), P36888 [D835Y]
# [46] = target: Receptor-type tyrosine-protein kinase FLT3 (Homo sapiens) (UniProt P36888)
# [47] = Compound concentration 100.0 nM
# [48] = Compound concentration 1000.0 nM
# Sequence of 3-phosphoinositide-dependent protein kinase 1 (Homo sapiens) (O15530 whole entry): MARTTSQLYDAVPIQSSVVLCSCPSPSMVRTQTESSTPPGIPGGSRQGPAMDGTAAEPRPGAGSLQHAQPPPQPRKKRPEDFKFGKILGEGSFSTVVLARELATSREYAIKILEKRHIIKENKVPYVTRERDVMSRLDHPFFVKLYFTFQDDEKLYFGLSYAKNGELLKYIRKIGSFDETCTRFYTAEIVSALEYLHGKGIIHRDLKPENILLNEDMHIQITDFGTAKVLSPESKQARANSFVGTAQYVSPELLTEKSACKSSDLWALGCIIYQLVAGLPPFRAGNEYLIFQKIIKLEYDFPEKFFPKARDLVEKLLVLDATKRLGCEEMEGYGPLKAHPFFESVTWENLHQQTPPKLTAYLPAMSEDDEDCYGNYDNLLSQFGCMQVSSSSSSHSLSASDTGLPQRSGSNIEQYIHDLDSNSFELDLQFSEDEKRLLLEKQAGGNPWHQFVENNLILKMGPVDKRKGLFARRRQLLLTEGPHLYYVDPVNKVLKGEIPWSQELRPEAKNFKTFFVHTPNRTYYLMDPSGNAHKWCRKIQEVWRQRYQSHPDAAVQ
# Sequence of Mast/stem cell growth factor receptor Kit (Homo sapiens) (P10721 whole entry): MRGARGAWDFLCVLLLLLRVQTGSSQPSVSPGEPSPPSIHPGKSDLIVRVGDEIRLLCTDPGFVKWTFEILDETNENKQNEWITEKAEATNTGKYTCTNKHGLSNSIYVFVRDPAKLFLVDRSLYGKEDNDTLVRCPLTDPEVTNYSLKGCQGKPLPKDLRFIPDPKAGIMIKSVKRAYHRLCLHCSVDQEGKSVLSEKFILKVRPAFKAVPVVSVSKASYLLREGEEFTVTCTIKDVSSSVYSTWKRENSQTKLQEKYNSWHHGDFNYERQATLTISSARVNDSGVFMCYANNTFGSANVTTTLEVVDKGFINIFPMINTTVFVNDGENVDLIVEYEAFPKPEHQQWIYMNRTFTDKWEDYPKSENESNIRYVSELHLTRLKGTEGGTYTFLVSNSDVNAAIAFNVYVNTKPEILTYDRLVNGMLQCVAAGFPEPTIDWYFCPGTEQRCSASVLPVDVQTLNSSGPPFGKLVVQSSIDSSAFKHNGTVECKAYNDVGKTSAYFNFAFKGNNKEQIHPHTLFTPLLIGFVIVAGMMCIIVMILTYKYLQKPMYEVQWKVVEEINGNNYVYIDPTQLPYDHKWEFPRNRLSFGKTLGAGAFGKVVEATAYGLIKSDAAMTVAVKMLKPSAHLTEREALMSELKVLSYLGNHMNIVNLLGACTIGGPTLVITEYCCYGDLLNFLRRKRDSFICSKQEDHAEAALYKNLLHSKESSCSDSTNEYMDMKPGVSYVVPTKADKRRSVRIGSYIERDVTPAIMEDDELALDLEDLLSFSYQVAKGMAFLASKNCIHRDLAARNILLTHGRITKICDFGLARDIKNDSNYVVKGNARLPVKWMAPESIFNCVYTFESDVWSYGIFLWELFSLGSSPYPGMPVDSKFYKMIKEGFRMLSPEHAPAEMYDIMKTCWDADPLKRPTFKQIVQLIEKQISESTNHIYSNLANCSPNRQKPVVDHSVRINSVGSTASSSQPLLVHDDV
# Sequence of Death-associated protein kinase 2 (Homo sapiens) (Q9UIK4 whole entry, looked up): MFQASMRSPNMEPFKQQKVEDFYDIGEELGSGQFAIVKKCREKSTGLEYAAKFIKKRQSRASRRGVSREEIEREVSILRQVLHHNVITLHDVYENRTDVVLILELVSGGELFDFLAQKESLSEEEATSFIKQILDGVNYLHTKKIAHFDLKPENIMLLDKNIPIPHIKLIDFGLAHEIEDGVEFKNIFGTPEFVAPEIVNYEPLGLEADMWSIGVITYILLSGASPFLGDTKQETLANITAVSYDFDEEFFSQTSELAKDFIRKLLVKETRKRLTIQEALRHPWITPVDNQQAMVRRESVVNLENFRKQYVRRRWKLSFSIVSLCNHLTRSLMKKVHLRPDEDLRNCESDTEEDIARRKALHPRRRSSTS
# Sequence of Alpha-2A adrenergic receptor (Homo sapiens) (P08913 whole entry, the tested form may be a part): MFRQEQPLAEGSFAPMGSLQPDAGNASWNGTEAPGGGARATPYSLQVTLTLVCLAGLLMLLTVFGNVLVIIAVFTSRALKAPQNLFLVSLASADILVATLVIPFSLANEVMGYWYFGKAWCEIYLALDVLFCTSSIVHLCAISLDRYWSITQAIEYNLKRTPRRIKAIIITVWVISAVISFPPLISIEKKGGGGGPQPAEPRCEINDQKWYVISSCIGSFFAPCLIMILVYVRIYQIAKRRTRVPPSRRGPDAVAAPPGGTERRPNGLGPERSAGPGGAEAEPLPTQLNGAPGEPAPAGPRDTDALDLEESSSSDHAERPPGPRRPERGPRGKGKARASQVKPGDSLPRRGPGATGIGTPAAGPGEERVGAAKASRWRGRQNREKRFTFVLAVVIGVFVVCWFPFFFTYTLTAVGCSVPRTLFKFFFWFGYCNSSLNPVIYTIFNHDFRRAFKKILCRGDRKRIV
# Sequence of Phosphatidylinositol 3-kinase catalytic subunit type 3 (Homo sapiens) (Q8NEB9 whole entry): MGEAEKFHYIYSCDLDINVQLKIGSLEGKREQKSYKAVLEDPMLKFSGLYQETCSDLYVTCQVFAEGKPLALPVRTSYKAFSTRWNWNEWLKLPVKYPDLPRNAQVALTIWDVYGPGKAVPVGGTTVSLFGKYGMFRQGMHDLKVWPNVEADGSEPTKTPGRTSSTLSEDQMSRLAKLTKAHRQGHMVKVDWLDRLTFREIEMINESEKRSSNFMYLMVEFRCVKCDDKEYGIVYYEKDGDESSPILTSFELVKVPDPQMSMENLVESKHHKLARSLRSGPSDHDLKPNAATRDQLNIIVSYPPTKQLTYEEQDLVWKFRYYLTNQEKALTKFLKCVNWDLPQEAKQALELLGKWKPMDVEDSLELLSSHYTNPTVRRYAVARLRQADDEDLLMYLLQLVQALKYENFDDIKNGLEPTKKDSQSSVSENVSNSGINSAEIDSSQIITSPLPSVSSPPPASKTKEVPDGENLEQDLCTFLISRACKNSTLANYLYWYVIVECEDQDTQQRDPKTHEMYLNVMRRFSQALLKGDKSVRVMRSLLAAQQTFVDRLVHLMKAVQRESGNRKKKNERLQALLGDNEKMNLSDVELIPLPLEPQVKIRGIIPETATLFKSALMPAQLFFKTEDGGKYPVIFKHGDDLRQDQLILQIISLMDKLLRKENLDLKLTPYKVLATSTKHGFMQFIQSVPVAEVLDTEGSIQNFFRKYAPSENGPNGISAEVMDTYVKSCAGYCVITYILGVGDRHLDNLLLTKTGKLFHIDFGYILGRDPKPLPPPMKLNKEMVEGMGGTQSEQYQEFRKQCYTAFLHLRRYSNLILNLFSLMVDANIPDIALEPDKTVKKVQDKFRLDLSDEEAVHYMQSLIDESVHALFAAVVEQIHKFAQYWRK
# Sequence of Epidermal growth factor receptor (Homo sapiens) (P00533 whole entry): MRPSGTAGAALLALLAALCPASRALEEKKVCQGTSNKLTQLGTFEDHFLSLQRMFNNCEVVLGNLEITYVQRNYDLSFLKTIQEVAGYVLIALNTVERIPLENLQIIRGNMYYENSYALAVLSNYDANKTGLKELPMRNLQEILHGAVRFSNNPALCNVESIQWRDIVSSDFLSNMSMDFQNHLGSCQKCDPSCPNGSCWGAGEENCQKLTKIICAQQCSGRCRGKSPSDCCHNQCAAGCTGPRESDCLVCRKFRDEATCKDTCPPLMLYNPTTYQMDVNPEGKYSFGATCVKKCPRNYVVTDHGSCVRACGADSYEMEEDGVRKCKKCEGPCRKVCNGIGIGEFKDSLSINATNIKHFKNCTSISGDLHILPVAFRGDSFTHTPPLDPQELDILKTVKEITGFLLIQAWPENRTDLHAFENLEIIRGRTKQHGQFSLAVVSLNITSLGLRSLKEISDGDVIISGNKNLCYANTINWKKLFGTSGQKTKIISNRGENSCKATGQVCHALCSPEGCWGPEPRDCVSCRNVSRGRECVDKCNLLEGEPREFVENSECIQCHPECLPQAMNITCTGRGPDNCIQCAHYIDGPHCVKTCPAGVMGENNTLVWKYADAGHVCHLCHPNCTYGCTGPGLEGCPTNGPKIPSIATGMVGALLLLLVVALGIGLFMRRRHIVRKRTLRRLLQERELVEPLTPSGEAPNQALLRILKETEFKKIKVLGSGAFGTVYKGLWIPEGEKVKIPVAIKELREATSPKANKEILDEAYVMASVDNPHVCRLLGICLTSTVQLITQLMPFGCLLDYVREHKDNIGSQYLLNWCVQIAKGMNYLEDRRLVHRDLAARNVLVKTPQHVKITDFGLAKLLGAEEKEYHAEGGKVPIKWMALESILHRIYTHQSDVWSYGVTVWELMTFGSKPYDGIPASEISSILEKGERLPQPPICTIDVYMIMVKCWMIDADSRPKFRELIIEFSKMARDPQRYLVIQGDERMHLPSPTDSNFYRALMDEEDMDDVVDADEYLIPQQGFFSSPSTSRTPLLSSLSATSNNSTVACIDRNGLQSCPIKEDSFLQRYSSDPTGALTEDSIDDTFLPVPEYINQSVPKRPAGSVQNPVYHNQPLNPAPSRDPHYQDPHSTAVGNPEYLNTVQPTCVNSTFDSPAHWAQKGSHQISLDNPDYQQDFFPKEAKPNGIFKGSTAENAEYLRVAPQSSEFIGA
# Sequence of Cyclin-dependent kinase 2 homolog (Plasmodium falciparum (isolate 3D7)) (P61075 whole entry): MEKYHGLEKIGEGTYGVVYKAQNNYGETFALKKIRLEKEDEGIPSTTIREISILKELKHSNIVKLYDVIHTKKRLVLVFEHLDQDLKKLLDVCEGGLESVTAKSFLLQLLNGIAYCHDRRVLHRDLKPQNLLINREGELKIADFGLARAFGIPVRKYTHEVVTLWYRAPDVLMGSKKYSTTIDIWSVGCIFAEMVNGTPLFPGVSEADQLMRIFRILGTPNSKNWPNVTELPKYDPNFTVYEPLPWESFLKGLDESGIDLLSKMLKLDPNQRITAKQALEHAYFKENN
# Sequence of Sigma intracellular receptor 2 (Q5BJF2 whole entry): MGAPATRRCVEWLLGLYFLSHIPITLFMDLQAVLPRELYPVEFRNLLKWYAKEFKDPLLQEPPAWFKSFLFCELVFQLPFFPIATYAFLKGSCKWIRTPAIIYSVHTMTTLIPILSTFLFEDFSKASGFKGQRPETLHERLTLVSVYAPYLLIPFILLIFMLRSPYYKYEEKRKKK
smiles,measurement,setting,value
C[C@H](c1ccnc(Nc2nc3ccc(-c4cc(N(C)C)ncn4)cc3[nH]2)c1)N1CCN(C(=O)CC(F)(F)F)CC1 [BAY-985],residual activity,[1]; [47],100%
same,residual activity,[2]; [47],100%
same,residual activity,[3]; [47],92%
same,residual activity,[4]; [47],100%
same,residual activity,[5]; [47],100%
same,residual activity,[6]; [47],93%
same,residual activity,[7]; [47],100%
same,residual activity,[8]; [47],96%
same,residual activity,[9]; [47],100%
same,residual activity,[10]; [47],100%
same,residual activity,[11]; [47],100%
same,residual activity,[12]; [47],100%
same,residual activity,[13]; [47],83%
same,residual activity,[14]; [47],84%
same,residual activity,[15]; [47],100%
same,residual activity,[16]; [47],100%
same,residual activity,[17]; [47],90%
same,residual activity,[18]; [47],76%
same,residual activity,[19]; [47],100%
same,residual activity,[20]; [47],85%
same,residual activity,[21]; [47],90%
same,residual activity,[22]; [47],100%
same,residual activity,[23]; [47],100%
same,residual activity,[24]; [47],85%
same,residual activity,[25]; [47],100%
same,residual activity,[26]; [47],88%
same,residual activity,[27]; [47],86%
same,residual activity,[28]; [47],91%
same,residual activity,[29]; [47],74%
same,residual activity,[30]; [47],100%
same,inhibition,[31],23.2%
same,residual activity,[32]; [47],100%
same,residual activity,[33]; [47],100%
same,inhibition,[34],54.1%
same,inhibition,[35],24.2%
same,residual activity,[36]; [47],100%
same,residual activity,[37]; [47],98%
same,residual activity,[38]; [47],100%
same,inhibition,[39],18.7%
same,residual activity,[40]; [47],100%
same,residual activity,[41]; [47],100%
same,inhibition,[42],24.7%
same,residual activity,[43]; [47],97%
same,residual activity,[44]; [47],100%
same,residual activity,[45]; [47],41%
same,residual activity,[46]; [47],67%
CN(C)c1ncnc(-c2ccc3nc(Nc4cc(CN5CCN(C(=O)CC(F)(F)F)CC5)ccn4)[nH]c3c2)c1Cl [BAY-440],residual activity,[1]; [48],100%
same,residual activity,[2]; [48],57%
same,residual activity,[3]; [48],63%
same,residual activity,[4]; [48],96%
same,residual activity,[5]; [48],100%
same,residual activity,[6]; [48],100%
same,residual activity,[7]; [48],54%
same,residual activity,[8]; [48],90%
same,residual activity,[9]; [48],100%
same,residual activity,[10]; [48],100%
same,residual activity,[11]; [48],59%
same,residual activity,[12]; [48],100%
same,residual activity,[13]; [48],71%
same,residual activity,[14]; [48],29%
same,residual activity,[15]; [48],85%
same,residual activity,[16]; [48],100%
same,residual activity,[17]; [48],61%
same,residual activity,[18]; [48],100%
same,residual activity,[19]; [48],75%
same,residual activity,[20]; [48],100%
same,residual activity,[21]; [48],71%
same,residual activity,[22]; [48],86%
same,residual activity,[23]; [48],100%
same,residual activity,[24]; [48],47%
same,residual activity,[25]; [48],100%
same,residual activity,[26]; [48],100%
same,residual activity,[27]; [48],96%
same,residual activity,[28]; [48],80%
same,residual activity,[29]; [48],100%
same,residual activity,[30]; [48],95%
same,inhibition,[31],19.5%
same,residual activity,[32]; [48],100%
same,residual activity,[33]; [48],100%
same,inhibition,[34],68.1%
same,inhibition,[35],15.7%
same,residual activity,[36]; [48],100%
same,residual activity,[37]; [48],85%
same,residual activity,[38]; [48],96%
same,inhibition,[39],12.4%
same,residual activity,[40]; [48],86%
same,residual activity,[41]; [48],85%
same,inhibition,[42],4.83%
same,residual activity,[43]; [48],100%
same,residual activity,[44]; [48],100%
same,residual activity,[45]; [48],38%
same,residual activity,[46]; [48],71%
